Data from patent US8044076B2, “Phenyl derivatives and their use as immunomodulators” (Actelion Pharmaceuticals Ltd., priority 2006, dated 2011).

Molecular target: human S1P1 receptor (Homo sapiens, UniProt P21453)
Experiment: GTPγS assay to determine EC50 values
Format: biochemical
Conditions: 35S-GTPγS binding, membrane preparations of CHO cells expressing recombinant human S1P1 receptor
Method: GTPγS binding assays are performed in 96 well microtiter plates (Nunc, 442587) in a final volume of 200 μl, using membrane preparations of CHO cells expressing recombinant human S1P1 receptor. Assay conditions are 20 mM Hepes (Fluka, 54461), 100 mM NaCl (Fluka, 71378), 5 mM MgCl2 (Fluka, 63064), 0.1% BSA (Calbiochem, 126609), 1 μM GDP (Sigma, G-7127), 2.5% DMSO (Fluka, 41644), 50 pM ^35S-GTPγS (Amersham Biosciences, SJ1320). The pH is 7.4. Test compounds are dissolved and diluted in 100% DMSO and pre-incubated at room temperature for 30 min in 150 μl of the above assay buffer, in the absence of ^35S-GTPγS. After addition of 50 μl of ^35S-GTPγS, the assay is incubated for 1 h at rt. The assay is terminated by transfer of the reaction mixture to a Multiscreen plate (Millipore, MAHFC1H60) using a cell harvester from Packard Biosciences, and the plates are washed with ice-cold 10 mM Na2HPO4/NaH2PO4 (70%/30%), dried, sealed at the bottom and, after addition of 25 μl MicroScint20 (Packard Biosciences, order#6013621), sealed on the top. Membrane-bound ^35S-GTPγS is measured with a TopCount from Packard Biosciences.
EC50 is the concentration of agonist inducing 50% of the maximal specific ^35S-GTPγS binding. Specific binding is determined by subtracting non-specific binding from maximal binding. […]
The EC50 values were determined according to the method described above: […]

human S1P1 receptor, sequence (P21453 whole entry): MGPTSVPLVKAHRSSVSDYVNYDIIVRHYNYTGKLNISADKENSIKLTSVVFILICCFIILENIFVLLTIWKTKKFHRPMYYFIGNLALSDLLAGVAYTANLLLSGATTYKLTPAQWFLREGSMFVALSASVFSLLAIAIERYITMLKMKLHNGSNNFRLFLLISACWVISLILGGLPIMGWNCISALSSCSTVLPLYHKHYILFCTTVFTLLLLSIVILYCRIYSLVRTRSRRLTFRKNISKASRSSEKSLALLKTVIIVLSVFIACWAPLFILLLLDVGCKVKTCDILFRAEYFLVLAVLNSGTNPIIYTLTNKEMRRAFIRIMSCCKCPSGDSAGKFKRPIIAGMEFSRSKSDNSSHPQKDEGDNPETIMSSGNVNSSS

EC50 [nM] | SMILES
0.1 | Cc1cc(-c2nc(-c3cc(C)c(OCC(O)CNC(=O)CO)c(C)c3)no2)ccc1OC(C)C (centres unmarked) [Example 6]
0.8 | Cc1cc(-c2nc(-c3cc(C)c(OCC(O)CNC(=O)CO)c(C)c3)no2)ccc1CC(C)C (centres unmarked) [Example 20]
